Test results from US9302999B2, “Substituted triazoles as herbicides” (E. I. DU PONT DE NEMOURS AND COMPANY, priority 2012, dated 2016).

Tests used:
Assay type in all cases: in vivo
corn (Zea mays) = experiment: Test C pre-/postemergence: corn; conditions: Postemergence
Outline: (§1)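 Visual injury scored 0–100 (100 = complete control) against untreated controls after 13–15 greenhouse days. Surfactant-containing solvent formulations applied either to soil after sowing (loam/sand) or over 1- to 4-leaf plants, 2–18 cm tall.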

[1] = test system: lambsquarters (Chenopodium album); experiment: Test C pre-/postemergence: lambsquarters; conditions: Postemergence
Outline: as §1

[2] = test system: winter wheat (Triticum aestivum); experiment: Test C pre-/postemergence: winter wheat; conditions: Postemergence
Outline: as §1

wild oat (Avena fatua) = experiment: Test C pre-/postemergence: wild oat; conditions: Postemergence
Outline: as §1

[3] = test system: morningglory (Ipomoea coccinea); experiment: Test C pre-/postemergence: morningglory; conditions: Postemergence
Outline: as §1

[4] = test system: nutsedge, yellow (yellow nutsedge, Cyperus esculentus); experiment: Test C pre-/postemergence: nutsedge, yellow; conditions: Postemergence
Outline: as §1

[5] = test system: barnyardgrass (Echinochloa crus-galli); experiment: Test A pre-/postemergence: barnyardgrass; conditions: 1000 g ai/ha
Outline: (§2)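 Injury was scored visually on a 0 (no effect) to 100 (complete control) scale versus untreated controls roughly ten days after treatment in the greenhouse. Compounds, formulated in surfactant-containing non-phytotoxic solvent, went on as soil-directed preemergence spray or postemergence to one- to two-leaf plants 2–10 cm tall.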

[6] = test system: velvetleaf (Abutilon theophrasti); experiment: Test A pre-/postemergence: velvetleaf; conditions: 1000 g ai/ha
Outline: as §2

[7] = test system: pigweed (Amaranthus retroflexus); experiment: Test A pre-/postemergence: pigweed; conditions: 1000 g ai/ha
Outline: as §2

[8] = test system: blackgrass (Alopecurus myosuroides); experiment: Test C pre-/postemergence: blackgrass; conditions: Postemergence
Outline: as §1

[9] = test system: foxtail, giant (giant foxtail, Setaria faberii); experiment: Test A pre-/postemergence: foxtail, giant; conditions: 1000 g ai/ha
Outline: as §2

[10] = test system: chickweed (common chickweed, Stellaria media); experiment: Test C postemergence: chickweed
Outline: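 Plants at the 1- to 4-leaf stage (2 to 18 cm tall), grown in pots of peat moss/vermiculite planting medium, received postemergence applications of the formulated test chemicals. After 13 to 15 days in a greenhouse, injury was scored visually versus controls from 0 (no effect) to 100 (complete control).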

[11] = 16 g ai/ha, scale 0 to 100, 0 no effect, 100 complete control
[12] = 31 g ai/ha, scale 0 to 100 (0 no effect, 100 complete control)
[13] = 62 g ai/ha, scale 0 to 100 (0 no effect, 100 complete control)
[14] = 125 g ai/ha, scale 0 to 100, 0 no effect, 100 complete control
[15] = Postemergence, visual rating on 0 to 100 scale (0 no effect, 100 complete control), approximately ten days
[16] = Preemergence, 0 to 100 scale, 0 is no effect, 100 is complete control

Cc1nn(-c2ccc(C(F)(F)F)cc2)nc1Cc1cccc(C(F)(F)F)c1 [Compound 124]
Plant response rating, Corn (corn (Zea mays); [11]): 5 | Plant response rating, Corn (corn (Zea mays); [12]): 20 | Plant response rating, Corn (corn (Zea mays); [13]): 25 | Plant response rating, Corn (corn (Zea mays); [14]): 25 | Plant response rating, Lambsquarters [1, 11]: 85 | Plant response rating, Lambsquarters [1, 12]: 95 | Plant response rating, Lambsquarters [1, 13]: 98 | Plant response rating, Lambsquarters [1, 14]: 98 | Plant response rating, Wheat [2, 11]: 5 | Plant response rating, Wheat [2, 12]: 10 | Plant response rating, Wheat [2, 13]: 15 | Plant response rating, Wheat [2, 14]: 20 | Plant response rating, Oat, Wild (wild oat (Avena fatua); [11]): 20 | Plant response rating, Oat, Wild (wild oat (Avena fatua); [12]): 20 | Plant response rating, Oat, Wild (wild oat (Avena fatua); [13]): 25 | Plant response rating, Oat, Wild (wild oat (Avena fatua); [14]): 35 | Plant response rating, Morningglory [3, 11]: 15 | Plant response rating, Morningglory [3, 12]: 15 | Plant response rating, Morningglory [3, 13]: 40 | Plant response rating, Morningglory [3, 14]: 40 | Plant response rating, Nutsedge, Yellow [4, 11]: 0 | Plant response rating, Nutsedge, Yellow [4, 12]: 0 | Plant response rating, Nutsedge, Yellow [4, 13]: 0 | Plant response rating, Nutsedge, Yellow [4, 14]: 0 | Barnyardgrass plant response rating [5, 15]: 70 | Barnyardgrass plant response rating [5, 16]: 90 | Velvetleaf plant response rating [6, 15]: 100 | Velvetleaf plant response rating [6, 16]: 80 | Pigweed plant response rating [7, 15]: 100 | Pigweed plant response rating [7, 16]: 100 | Plant response rating, Blackgrass [8, 11]: 0 | Plant response rating, Blackgrass [8, 12]: 35 | Plant response rating, Blackgrass [8, 13]: 50 | Plant response rating, Blackgrass [8, 14]: 85 | Foxtail, Giant plant response rating [9, 15]: 90 | Foxtail, Giant plant response rating [9, 16]: 100 | Plant response rating, Chickweed [10, 11]: 45 | Plant response rating, Chickweed [10, 12]: 50 | Plant response rating, Chickweed [10, 13]: 55 | Plant response rating, Chickweed [10, 14]: 55
